Where two headings read alike, the source gives them in different places.
How the values were obtained:
Experiment in all cases: Test B pre-/postemergence plant response
Type in all cases: in vivo
[1] = tested on: velvetleaf (Abutilon theophrasti); settings: for pest or weed control at 31 g/ha: 31 g ai/ha; for pest or weed control at 62 g/ha: 62 g ai/ha; for pest or weed control at 125 g/ha: 125 g ai/ha
Method in brief: (§1)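 Compound in solvent + surfactant applied pre-em (loam/sand) or post-em (plants 2–18 cm, peat medium); greenhouse hold 13–15 days; visual 0–100 control score.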

[2] = tested on: yellow nutsedge (Cyperus esculentus); settings: for pest or weed control at 31 g/ha: 31 g ai/ha; for pest or weed control at 62 g/ha: 62 g ai/ha; for pest or weed control at 125 g/ha: 125 g ai/ha
Method in brief: as §1

[3] = tested on: goosegrass (Eleusine indica); settings: for pest or weed control at 31 g/ha: 31 g ai/ha; for pest or weed control at 62 g/ha: 62 g ai/ha; for pest or weed control at 125 g/ha: 125 g ai/ha
Method in brief: as §1

[4] = tested on: kochia (Kochia scoparia); settings: for pest or weed control at 31 g/ha: 31 g ai/ha; for pest or weed control at 62 g/ha: 62 g ai/ha; for pest or weed control at 125 g/ha: 125 g ai/ha
Method in brief: as §1

[5] = tested on: ragweed (common ragweed, Ambrosia elatior); settings: for pest or weed control at 31 g/ha: 31 g ai/ha; for pest or weed control at 62 g/ha: 62 g ai/ha; for pest or weed control at 125 g/ha: 125 g ai/ha
Method in brief: as §1

[6] = tested on: green foxtail (Setaria viridis); settings: for pest or weed control at 31 g/ha: 31 g ai/ha; for pest or weed control at 62 g/ha: 62 g ai/ha; for pest or weed control at 125 g/ha: 125 g ai/ha
Method in brief: as §1

[7] = tested on: lambsquarters (Chenopodium album); settings: Chenopodium album, post-emergence, Postemergence, read-out: Plant response rating, Lambsquarters
Method in brief: as §1

[8] = Abutilon theophrasti, pre-emergence, 360 h, Preemergence, scale 0 to 100 (0 no effect, 100 complete control), read-out: Plant response rating, Velvetleaf
[9] = Preemergence, 250 g ai/ha, 0 to 100 scale
[10] = Cyperus, pre-emergence, Preemergence, scale 0 to 100 (0 no effect, 100 complete control), read-out: Plant response rating, Nutsedge, Yellow
[11] = Eleusine indica, pre-emergence, Preemergence, scale 0 to 100 (0 no effect, 100 complete control), read-out: Plant response rating, Goosegrass
[12] = Bassia scoparia, pre-emergence, Preemergence, scale 0 to 100 (0 no effect, 100 complete control), read-out: Plant response rating, Kochia
[13] = Ambrosia artemisiifolia, pre-emergence, 360 h, Preemergence, scale 0 to 100 (0 no effect, 100 complete control), read-out: Plant response rating, Ragweed
[14] = Setaria viridis, pre-emergence, Preemergence, scale 0 to 100 (0 no effect, 100 complete control), read-out: Plant response rating, Foxtail, Green

Which results are given for `COCCn1c(-c2cc(F)cc(F)c2)ncc(C(=O)C2=C(O)C3CCC(C3)C2=O)c1=O` (stereo not shown) [Compound 243, 2-(3,5-difluorophenyl)-5-[(2-hydroxy-4-oxobicyclo[3.2.1]oct-2-en-3-yl)carbonyl]-3-(2-methoxyethyl)-4(3H)-pyrimidinone]?
pest or weed control at 31 g/ha ([1]; Abutilon theophrasti, post-emergence, 360 h, Postemergence, 0 to 100 scale (0 no effect, 100 complete control), read-out: Plant response rating, Velvetleaf): 100%; pest or weed control at 62 g/ha ([1]; Abutilon theophrasti, post-emergence, 360 h, Postemergence, scale 0 to 100 (0 no effect, 100 complete control), read-out: Plant response rating, Velvetleaf): 100%; pest or weed control at 125 g/ha ([1]; Abutilon theophrasti, post-emergence, 360 h, Postemergence, scale 0 (no effect) to 100 (complete control), 13 to 15 days, read-out: Plant response rating, Velvetleaf): 100%; pest or weed control at 250 g/ha ([1]; Abutilon theophrasti, post-emergence, 360 h, Postemergence, 250 g ai/ha, scale 0 to 100 (0 no effect, 100 complete control), 13 to 15 days, read-out: Plant response rating, Velvetleaf): 100%; pest or weed control at 31 g/ha [1, 8]: 100%; pest or weed control at 62 g/ha [1, 8]: 100%; pest or weed control at 125 g/ha ([1]; Abutilon theophrasti, pre-emergence, 360 h, Preemergence, scale 0 to 100, 0 no effect, 100 complete control, read-out: Plant response rating, Velvetleaf): 100%; Velvetleaf plant response rating [1, 9]: 100; pest or weed control at 31 g/ha ([2]; Cyperus, post-emergence, Postemergence, 0 to 100 scale (0 no effect, 100 complete control), read-out: Plant response rating, Nutsedge, Yellow): 65%; pest or weed control at 62 g/ha ([2]; Cyperus, post-emergence, Postemergence, scale 0 to 100 (0 no effect, 100 complete control), read-out: Plant response rating, Nutsedge, Yellow): 65%; pest or weed control at 125 g/ha ([2]; Cyperus, post-emergence, Postemergence, scale 0 (no effect) to 100 (complete control), 13 to 15 days, read-out: Plant response rating, Nutsedge, Yellow): 70%; pest or weed control at 250 g/ha ([2]; Cyperus, post-emergence, Postemergence, 250 g ai/ha, scale 0 to 100 (0 no effect, 100 complete control), 13 to 15 days, read-out: Plant response rating, Nutsedge, Yellow): 85%; pest or weed control at 31 g/ha [2, 10]: 65%; pest or weed control at 62 g/ha [2, 10]: 80%; pest or weed control at 125 g/ha ([2]; Cyperus, pre-emergence, Preemergence, scale 0 to 100, 0 no effect, 100 complete control, read-out: Plant response rating, Nutsedge, Yellow): 90%; Nutsedge, Yellow plant response rating [2, 9]: 95; pest or weed control at 31 g/ha ([3]; Eleusine indica, post-emergence, Postemergence, 0 to 100 scale (0 no effect, 100 complete control), read-out: Plant response rating, Goosegrass): 95%; pest or weed control at 62 g/ha ([3]; Eleusine indica, post-emergence, Postemergence, scale 0 to 100 (0 no effect, 100 complete control), read-out: Plant response rating, Goosegrass): 95%; pest or weed control at 125 g/ha ([3]; Eleusine indica, post-emergence, Postemergence, scale 0 (no effect) to 100 (complete control), 13 to 15 days, read-out: Plant response rating, Goosegrass): 98%; pest or weed control at 250 g/ha ([3]; Eleusine indica, post-emergence, Postemergence, 250 g ai/ha, scale 0 to 100 (0 no effect, 100 complete control), 13 to 15 days, read-out: Plant response rating, Goosegrass): 98%; pest or weed control at 31 g/ha [3, 11]: 98%; pest or weed control at 62 g/ha [3, 11]: 100%; pest or weed control at 125 g/ha ([3]; Eleusine indica, pre-emergence, Preemergence, scale 0 to 100, 0 no effect, 100 complete control, read-out: Plant response rating, Goosegrass): 100%; Goosegrass plant response rating [3, 9]: 100; pest or weed control at 31 g/ha ([4]; Bassia scoparia, post-emergence, Postemergence, 0 to 100 scale (0 no effect, 100 complete control), read-out: Plant response rating, Kochia): 85%; pest or weed control at 62 g/ha ([4]; Bassia scoparia, post-emergence, Postemergence, scale 0 to 100 (0 no effect, 100 complete control), read-out: Plant response rating, Kochia): 95%; pest or weed control at 125 g/ha ([4]; Bassia scoparia, post-emergence, Postemergence, scale 0 (no effect) to 100 (complete control), 13 to 15 days, read-out: Plant response rating, Kochia): 100%; pest or weed control at 250 g/ha ([4]; Bassia scoparia, post-emergence, Postemergence, 250 g ai/ha, scale 0 to 100 (0 no effect, 100 complete control), 13 to 15 days, read-out: Plant response rating, Kochia): 100%; pest or weed control at 31 g/ha [4, 12]: 15%; pest or weed control at 62 g/ha [4, 12]: 20%; pest or weed control at 125 g/ha ([4]; Bassia scoparia, pre-emergence, Preemergence, scale 0 to 100, 0 no effect, 100 complete control, read-out: Plant response rating, Kochia): 90%; Kochia plant response rating [4, 9]: 100; pest or weed control at 31 g/ha ([5]; Ambrosia artemisiifolia, post-emergence, 360 h, Postemergence, 0 to 100 scale (0 no effect, 100 complete control), read-out: Plant response rating, Ragweed): 90%; pest or weed control at 62 g/ha ([5]; Ambrosia artemisiifolia, post-emergence, 360 h, Postemergence, scale 0 to 100 (0 no effect, 100 complete control), read-out: Plant response rating, Ragweed): 95%; pest or weed control at 125 g/ha ([5]; Ambrosia artemisiifolia, post-emergence, 360 h, Postemergence, scale 0 (no effect) to 100 (complete control), 13 to 15 days, read-out: Plant response rating, Ragweed): 98%; pest or weed control at 250 g/ha ([5]; Ambrosia artemisiifolia, post-emergence, 360 h, Postemergence, 250 g ai/ha, scale 0 to 100 (0 no effect, 100 complete control), 13 to 15 days, read-out: Plant response rating, Ragweed): 100%; pest or weed control at 31 g/ha [5, 13]: 85%; pest or weed control at 62 g/ha [5, 13]: 95%; pest or weed control at 125 g/ha ([5]; Ambrosia artemisiifolia, pre-emergence, 360 h, Preemergence, scale 0 to 100, 0 no effect, 100 complete control, read-out: Plant response rating, Ragweed): 98%; Ragweed plant response rating [5, 9]: 98; Foxtail, Green plant response rating [6, 9]: 100; pest or weed control at 31 g/ha ([6]; Setaria viridis, post-emergence, Postemergence, 0 to 100 scale (0 no effect, 100 complete control), read-out: Plant response rating, Foxtail, Green): 98%; pest or weed control at 62 g/ha ([6]; Setaria viridis, post-emergence, Postemergence, scale 0 to 100 (0 no effect, 100 complete control), read-out: Plant response rating, Foxtail, Green): 98%; pest or weed control at 125 g/ha ([6]; Setaria viridis, post-emergence, Postemergence, scale 0 (no effect) to 100 (complete control), 13 to 15 days, read-out: Plant response rating, Foxtail, Green): 100%; pest or weed control at 250 g/ha ([6]; Setaria viridis, post-emergence, Postemergence, 250 g ai/ha, scale 0 to 100 (0 no effect, 100 complete control), 13 to 15 days, read-out: Plant response rating, Foxtail, Green): 100%; pest or weed control at 31 g/ha [6, 14]: 35%; pest or weed control at 62 g/ha [6, 14]: 100%; pest or weed control at 125 g/ha ([6]; Setaria viridis, pre-emergence, Preemergence, scale 0 to 100, 0 no effect, 100 complete control, read-out: Plant response rating, Foxtail, Green): 100%; pest or weed control at 31 g/ha ([7]; 31 g ai/ha, 0 to 100 scale (0 no effect, 100 complete control)): 100%; pest or weed control at 62 g/ha ([7]; 62 g ai/ha, scale 0 to 100 (0 no effect, 100 complete control)): 100%; pest or weed control at 125 g/ha ([7]; 125 g ai/ha, scale 0 (no effect) to 100 (complete control), 13 to 15 days): 100%; pest or weed control at 250 g/ha ([7]; 250 g ai/ha, scale 0 to 100 (0 no effect, 100 complete control), 13 to 15 days): 100%
